Measurements: patent US6046171A, “6,11-bridged erythromycin derivatives” (priority 1998, dated 2000)
In brackets after ≈: the same amount, converted by molar mass.

Columns and labels:
Assay type in all cases: cell-based
[1] = tested on: Staphylococcus aureus ATCC 6538P; test: in vitro antibacterial MIC, agar dilution (BHI agar, Steers replicator); settings: organism code AA; 35-37° C., 20 to 24 hours; unit assumed
Method: (§1) Representative compounds of the present invention were assayed in vitro for antibacterial activity as follows: Twelve petri dishes containing successive aqueous dilutions of the test compound mixed with 10 mL of sterilized Brain Heart Infusion (BHI) agar (Difco 0418-01-5) were prepared. Each plate was inoculated with 1:100 (or 1:10 for slow-growing strains, such as Micrococcus and Streptococcus) dilutions of up to 32 different microorganisms, using a Steers replicator block. […] In addition, a control plate, using BHI agar containing no test compound, was prepared and incubated at the beginning and end of each test.
(§2) An additional plate containing a compound having known susceptibility patterns for the organisms being tested and belonging to the same antibiotic class as the test compound was also prepared and incubated as a further control, as well as to provide test-to-test comparability.
(§3) After incubation, each plate was visually inspected. The minimum inhibitory concentration (MIC) was defined as the lowest concentration of drug yielding no growth, a slight haze, or sparsely isolated colonies on the inoculum spot as compared to the growth control.

[2] = tested on: Streptococcus pyogenes PIU 2548; test: in vitro antibacterial MIC, agar dilution; settings: organism code NN; 35-37° C., 20 to 24 hours; unit assumed
Method: as §1, §2, §3

Escherichia coli SS = test: in vitro antibacterial MIC, agar dilution; settings: organism code RR; 35-37° C., 20 to 24 hours; unit assumed
Method: as §1, §2, §3

[3] = tested on: Staphylococcus aureus CMX 553; test: in vitro antibacterial MIC, agar dilution; settings: organism code FF; 35-37° C., 20 to 24 hours; unit assumed
Method: as §1, §2, §3

[4] = tested on: Enterococcus faecium ATCC 8Q43; test: in vitro antibacterial MIC, agar dilution; settings: organism code II; 35-37° C., 20 to 24 hours; unit assumed
Method: as §1, §2, §3

[5] = tested on: Haemophilis Influenzae DILL AMP R; test: in vitro antibacterial MIC, agar dilution; settings: organism code WW; 35-37° C., 20 to 24 hours; unit assumed
Method: as §1, §2, §3

[6] = tested on: Streptococcus pyogenes EES61; test: in vitro antibacterial MIC, agar dilution; settings: organism code LL; 35-37° C., 20 to 24 hours; unit assumed
Method: as §1, §2, §3

[7] = tested on: Staphylococcus epidermidis 3519; test: in vitro antibacterial MIC, agar dilution; settings: organism code HH; 35-37° C., 20 to 24 hours; unit assumed
Method: as §1, §2, §3

[8] = tested on: Streptococcus Pheumoniae 5979; test: in vitro antibacterial MIC, agar dilution; settings: organism code ZZ; 35-37° C., 20 to 24 hours; unit assumed
Method: as §1, §2, §3

[9] = tested on: Micrococcus luteus ATCC 4698; test: in vitro antibacterial MIC, agar dilution; settings: organism code PP; 35-37° C., 20 to 24 hours; unit assumed
Method: as §1, §2, §3

[10] = tested on: Staphylococcus aureus CMX 642A; test: in vitro antibacterial MIC, agar dilution; settings: organism code DD; 35-37° C., 20 to 24 hours; unit assumed
Method: as §1, §2, §3

[11] = tested on: Streptococcus Pheumoniae 5649; test: in vitro antibacterial MIC, agar dilution; settings: organism code ZZA; 35-37° C., 20 to 24 hours; unit assumed
Method: as §1, §2, §3

[12] = tested on: Nocardia Asteroides ATCC9970; test: in vitro antibacterial MIC, agar dilution; settings: organism code VV; 35-37° C., 20 to 24 hours; unit assumed
Method: as §1, §2, §3

[13] = tested on: Streptococcus bovis A-5169; test: in vitro antibacterial MIC, agar dilution; settings: organism code JJ; 35-37° C., 20 to 24 hours; unit assumed
Method: as §1, §2, §3

[14] = tested on: Mycobacterium smegmatis ATCC 114; test: in vitro antibacterial MIC, agar dilution; settings: organism code UU; 35-37° C., 20 to 24 hours; unit assumed
Method: as §1, §2, §3

[15] = tested on: Micrococcus luteus ATCC 9341; test: in vitro antibacterial MIC, agar dilution; settings: organism code OO; 35-37° C., 20 to 24 hours; unit assumed
Method: as §1, §2, §3

[16] = tested on: Staphylococcus aureus NCTC10649M; test: in vitro antibacterial MIC, agar dilution; settings: organism code EE; 35-37° C., 20 to 24 hours; unit assumed
Method: as §1, §2, §3

[17] = tested on: Streptococcus agalactiae CMX 508; test: in vitro antibacterial MIC, agar dilution; settings: organism code KK; 35-37° C., 20 to 24 hours; unit assumed
Method: as §1, §2, §3

[18] = tested on: Staphylococcus aureus A5177; test: in vitro antibacterial MIC, agar dilution; settings: organism code BB; 35-37° C., 20 to 24 hours; unit assumed
Method: as §1, §2, §3

Structure (SMILES)	MIC [1]	MIC [2]	MIC (Escherichia coli SS)	MIC [3]	MIC [4]	MIC [5]	MIC [6]	MIC [7]	MIC [8]	MIC [9]	MIC [10]	MIC [11]	MIC [12]	MIC [13]	MIC [14]	MIC [15]	MIC [16]	MIC [17]	MIC [18]
CC[C@H]1OC(=O)[C@H](C)[C@@H](O[C@H]2C[C@@](C)(OC)[C@@H](O)[C@H](C)O2)[C@H](C)[C@@H](O[C@@H]2O[C@H](C)C[C@H](N(C)C)[C@H]2O)[C@@]2(C)C[C@@H](C)C(=O)[C@H](C)[C@H]3N(CCNC(=O)c4ccccc4C=CCO2)C(=O)O[C@]13C [Example 4]	1.56 µg/mL (≈ 1.65 µM)	12.5 µg/mL (≈ 13.2 µM)	6.2 µg/mL (≈ 6.57 µM)	1.56 µg/mL (≈ 1.65 µM)	0.39 µg/mL (≈ 0.413 µM)	16 µg/mL (≈ 16.9 µM)	0.39 µg/mL (≈ 0.413 µM)	1.56 µg/mL (≈ 1.65 µM)	> 128 µg/mL	1.56 µg/mL (≈ 1.65 µM)	1.56 µg/mL (≈ 1.65 µM)	16 µg/mL (≈ 16.9 µM)	0.2 µg/mL (≈ 0.212 µM)						
CC[C@H]1OC(=O)[C@H](C)[C@@H](O[C@H]2C[C@@](C)(OC)[C@@H](O)[C@H](C)O2)[C@H](C)[C@@H](O[C@@H]2O[C@H](C)C[C@H](N(C)C)[C@H]2O)[C@@]2(C)C[C@@H](C)C(=O)[C@H](C)[C@H]3N(CCNC(=O)Cc4ccccc4C=CCO2)C(=O)O[C@]13C [Example 6]	0.78 µg/mL (≈ 0.814 µM)	12.5 µg/mL (≈ 13 µM)	3.1 µg/mL (≈ 3.24 µM)	0.78 µg/mL (≈ 0.814 µM)	0.39 µg/mL (≈ 0.407 µM)	8 µg/mL (≈ 8.35 µM)	0.2 µg/mL (≈ 0.209 µM)	0.78 µg/mL (≈ 0.814 µM)	> 128 µg/mL	0.78 µg/mL (≈ 0.814 µM)	1.56 µg/mL (≈ 1.63 µM)	16 µg/mL (≈ 16.7 µM)	0.39 µg/mL (≈ 0.407 µM)	0.1 µg/mL (≈ 0.104 µM)	0.39 µg/mL (≈ 0.407 µM)	0.1 µg/mL (≈ 0.104 µM)	1.56 µg/mL (≈ 1.63 µM)	0.1 µg/mL (≈ 0.104 µM)	12.5 µg/mL (≈ 13 µM)
CC[C@H]1OC(=O)[C@H](C)[C@@H](O[C@H]2C[C@@](C)(OC)[C@@H](O)[C@H](C)O2)[C@H](C)[C@@H](O[C@@H]2O[C@H](C)C[C@H](N(C)C)[C@H]2O)[C@@]2(C)C[C@@H](C)C(=O)[C@H](C)[C@H]3N(CCNCc4cccc(c4)C=CCO2)C(=O)O[C@]13C [Example 11]			6.2 µg/mL (≈ 6.67 µM)		0.2 µg/mL (≈ 0.215 µM)	32 µg/mL (≈ 34.4 µM)			> 128 µg/mL			32 µg/mL (≈ 34.4 µM)							
CC[C@H]1OC(=O)[C@H](C)[C@@H](O[C@H]2C[C@@](C)(OC)[C@@H](O)[C@H](C)O2)[C@H](C)[C@@H](O[C@@H]2O[C@H](C)C[C@H](N(C)C)[C@H]2O)[C@@]2(C)C[C@@H](C)C(=O)[C@H](C)[C@H]3N(CCCCO2)C(=O)O[C@]13C [Example 15]					0.1 µg/mL (≈ 0.123 µM)	32 µg/mL (≈ 39.4 µM)			> 128 µg/mL			16 µg/mL (≈ 19.7 µM)		0.05 µg/mL (≈ 0.0615 µM)					
CC[C@H]1OC(=O)[C@H](C)C(=O)[C@H](C)[C@@H](O[C@@H]2O[C@H](C)C[C@H](N(C)C)[C@H]2O)[C@@]2(C)C[C@@H](C)C(=O)[C@H](C)[C@H]3N(CC=CCO2)C(=O)O[C@]13C [Example 16]	0.39 µg/mL (≈ 0.599 µM)	0.39 µg/mL (≈ 0.599 µM)	0.78 µg/mL (≈ 1.2 µM)	0.39 µg/mL (≈ 0.599 µM)	0.2 µg/mL (≈ 0.307 µM)	32 µg/mL (≈ 49.2 µM)	0.2 µg/mL (≈ 0.307 µM)	0.39 µg/mL (≈ 0.599 µM)	> 128 µg/mL	0.39 µg/mL (≈ 0.599 µM)	0.39 µg/mL (≈ 0.599 µM)		0.39 µg/mL (≈ 0.599 µM)	0.2 µg/mL (≈ 0.307 µM)	6.2 µg/mL (≈ 9.53 µM)	0.2 µg/mL (≈ 0.307 µM)	0.39 µg/mL (≈ 0.599 µM)	0.2 µg/mL (≈ 0.307 µM)	0.39 µg/mL (≈ 0.599 µM)
CC[C@H]1OC(=O)[C@H](C)[C@@H](O[C@H]2C[C@@](C)(OC)[C@@H](O)[C@H](C)O2)[C@H](C)[C@@H](O[C@@H]2O[C@H](C)C[C@H](N(C)C)[C@H]2O)[C@@]2(C)C[C@@H](C)C(=O)[C@H](C)[C@H]3N(CCC=CCO2)C(=O)O[C@]13C [Example 17]	0.1 µg/mL (≈ 0.121 µM)			0.1 µg/mL (≈ 0.121 µM)	0.05 µg/mL (≈ 0.0606 µM)	8 µg/mL (≈ 9.7 µM)	0.02 µg/mL (≈ 0.0242 µM)	0.2 µg/mL (≈ 0.242 µM)	> 128 µg/mL	0.1 µg/mL (≈ 0.121 µM)	0.2 µg/mL (≈ 0.242 µM)	8 µg/mL (≈ 9.7 µM)	0.02 µg/mL (≈ 0.0242 µM)		0.2 µg/mL (≈ 0.242 µM)	0.02 µg/mL (≈ 0.0242 µM)	0.2 µg/mL (≈ 0.242 µM)		
CC[C@H]1OC(=O)[C@H](C)[C@@H](O[C@H]2C[C@@](C)(OC)[C@@H](O)[C@H](C)O2)[C@H](C)[C@@H](O[C@@H]2O[C@H](C)C[C@H](N(C)C)[C@H]2O)[C@@]2(C)C[C@@H](C)C(=O)[C@H](C)[C@H]3N(CC(O)CC=CCO2)C(=O)O[C@]13C (stereo partly drawn) [Example 19]		12.5 µg/mL (≈ 14.6 µM)			0.1 µg/mL (≈ 0.117 µM)	8 µg/mL (≈ 9.36 µM)	0.05 µg/mL (≈ 0.0585 µM)		> 128 µg/mL			16 µg/mL (≈ 18.7 µM)	0.05 µg/mL (≈ 0.0585 µM)	0.02 µg/mL (≈ 0.0234 µM)		0.05 µg/mL (≈ 0.0585 µM)		0.05 µg/mL (≈ 0.0585 µM)	
